Assay results taken from ChEMBL document CHEMBL1201862, “PubChem BioAssay data set” (2004).
“And” between values parts separate entries of the source, which are not always exact repeats. Equal entries are not always repeated. The source made the active and inactive calls.

Tests used:
[1] = viability of uninfected HEp-2 cells – cell-based, HTS, cytotoxicity control for RSV inhibitor project, dose response (AID 2410); type: functional; conditions: human respiratory syncytial virus
[2] = microbe, parasite or virus in culture; type: functional; conditions: Mycobacterium tuberculosis
[3] = Luminescence Cell-Based Dose Retest to Confirm Inhibitors of Cancer Stem Cells. [Related pubchem assays (depositor defined):AID2717, AID2721]; type: functional; conditions: Homo sapiens
[4] = test system: Vero; assay: cells; type: functional, cell-based; conditions: Chlorocebus sabaeus
[5] = test system: Vero; assay: cells; type: functional; conditions: Chlorocebus sabaeus
[6] = molecular target: T1, Polyadenylate-binding protein 1 (Homo sapiens, UniProt P11940); assay: MLLE binding blockers, Cy5 peptide tracer – biochemical, fluorescence polarization, Cy5-PAM2 peptide, secondary, miRNA deadenylation inhibitor project, dose response (AID 602260); type: functional; conditions: read-out: IC50_Mean
T1 sequence (P11940 whole entry, the tested form may be a part): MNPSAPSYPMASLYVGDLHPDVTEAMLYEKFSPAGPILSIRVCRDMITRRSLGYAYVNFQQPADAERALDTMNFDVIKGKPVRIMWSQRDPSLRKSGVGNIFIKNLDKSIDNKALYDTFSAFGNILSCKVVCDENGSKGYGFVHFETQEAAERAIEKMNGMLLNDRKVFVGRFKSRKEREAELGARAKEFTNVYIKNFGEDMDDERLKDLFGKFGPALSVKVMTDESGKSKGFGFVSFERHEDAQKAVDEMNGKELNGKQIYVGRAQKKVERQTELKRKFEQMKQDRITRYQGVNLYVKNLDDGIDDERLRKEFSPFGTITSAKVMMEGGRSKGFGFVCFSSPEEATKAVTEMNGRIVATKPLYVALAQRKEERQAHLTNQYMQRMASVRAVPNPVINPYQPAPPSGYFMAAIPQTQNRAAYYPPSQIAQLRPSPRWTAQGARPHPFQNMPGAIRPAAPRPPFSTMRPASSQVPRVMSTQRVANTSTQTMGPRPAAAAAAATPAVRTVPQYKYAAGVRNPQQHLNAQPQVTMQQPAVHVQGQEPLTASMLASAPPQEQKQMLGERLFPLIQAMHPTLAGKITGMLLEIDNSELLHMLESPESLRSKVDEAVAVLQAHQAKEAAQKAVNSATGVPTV

[7] = molecular target: T1, Polyadenylate-binding protein 1; assay: MLLE domain peptide-binding blockers, IC50 – biochemical, fluorescence polarization, FITC-PAM2 peptide, dose response (AID 602259); type: functional; conditions: read-out: IC50_Mean
[8] = test system: Escherichia coli; assay: microbe, parasite or virus in culture
[9] = test system: BJ; assay: BJ-TERT fibroblast viability loss – cell-based, RAS-independent, luminescence, dose response (AID 1933); type: functional; conditions: Homo sapiens
[10] = test system: BJ; assay: cells; type: functional, cell-based; conditions: Homo sapiens
[11] = test system: BJ; assay: BJ-TERT-LT-ST fibroblast viability loss – cell-based, RAS-independent, luminescence, dose response (AID 1935); type: functional; conditions: Homo sapiens;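 further: BJ fibroblasts immortalized with TERT plus LT and ST oncogenes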
[12] = DRD fibroblast viability loss – cell-based, non-viral oncogenic, luminescence, dose response (AID 1934); type: functional; conditions: Homo sapiens
[13] = molecular target: T2, Microphthalmia-associated transcription factor (Homo sapiens, UniProt O75030); assay: reducers of TRPM1 reporter luminescence, concentration series – cell-based, SK-MEL-5, cherry-picked, set 3, MITF inhibitor project, dose response (AID 493073); type: functional;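 further: SK-MEL-5 melanoma cells with luciferase driven by the MITF target TRPM1 promoter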
T2 sequence (O75030 whole entry): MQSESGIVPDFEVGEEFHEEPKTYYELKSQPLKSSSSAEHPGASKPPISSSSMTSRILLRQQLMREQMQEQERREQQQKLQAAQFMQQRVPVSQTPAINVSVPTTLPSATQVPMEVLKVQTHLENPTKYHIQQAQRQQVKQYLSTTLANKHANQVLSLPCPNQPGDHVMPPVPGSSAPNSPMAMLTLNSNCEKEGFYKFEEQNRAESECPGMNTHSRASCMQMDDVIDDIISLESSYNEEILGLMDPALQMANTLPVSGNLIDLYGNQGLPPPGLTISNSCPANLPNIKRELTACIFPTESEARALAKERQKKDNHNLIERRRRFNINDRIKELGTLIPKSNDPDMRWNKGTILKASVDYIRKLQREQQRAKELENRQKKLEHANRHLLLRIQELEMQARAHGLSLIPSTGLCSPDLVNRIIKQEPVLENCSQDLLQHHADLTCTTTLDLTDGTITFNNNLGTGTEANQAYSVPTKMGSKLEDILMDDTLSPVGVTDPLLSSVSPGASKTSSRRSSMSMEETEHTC

[14] = A Cell Based Secondary Assay To Explore Cytotoxicity of Compounds that Sensitize Mycobacterium Tuberculosis to Beta-Lactam Antibiotics.; type: functional
[15] = NIH-3T3 fibroblast cytotoxicity, dose response, cytotoxicity control, cell-based, fluorescence, Alamar Blue, secondary assay (AID 2327); type: functional;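 further: NIH-3T3 mouse fibroblasts cultured with fluconazole at 8 µg/mL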
[16] = fluconazole-exposed Candida albicans growth modulators – fluorescence, retest, confirmation (AID 2467); type: functional, cell-based
[17] = molecular target: T3, Heat shock factor protein 1 (Mus musculus, UniProt P38532); assay: enhancement of HSF1-driven luciferase signal – cell-based, NIH3T3, luminescence, dose retest, confirmation (AID 435004); type: functional;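 further: stress induced by proteasome inhibitor MG132 added 30 min after compound; luciferase reporter driven by HSF1 response element in NIH3T3 cells; actives raise luminescence as potentiators of the MG132 stress response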
T3 sequence (P38532 whole entry): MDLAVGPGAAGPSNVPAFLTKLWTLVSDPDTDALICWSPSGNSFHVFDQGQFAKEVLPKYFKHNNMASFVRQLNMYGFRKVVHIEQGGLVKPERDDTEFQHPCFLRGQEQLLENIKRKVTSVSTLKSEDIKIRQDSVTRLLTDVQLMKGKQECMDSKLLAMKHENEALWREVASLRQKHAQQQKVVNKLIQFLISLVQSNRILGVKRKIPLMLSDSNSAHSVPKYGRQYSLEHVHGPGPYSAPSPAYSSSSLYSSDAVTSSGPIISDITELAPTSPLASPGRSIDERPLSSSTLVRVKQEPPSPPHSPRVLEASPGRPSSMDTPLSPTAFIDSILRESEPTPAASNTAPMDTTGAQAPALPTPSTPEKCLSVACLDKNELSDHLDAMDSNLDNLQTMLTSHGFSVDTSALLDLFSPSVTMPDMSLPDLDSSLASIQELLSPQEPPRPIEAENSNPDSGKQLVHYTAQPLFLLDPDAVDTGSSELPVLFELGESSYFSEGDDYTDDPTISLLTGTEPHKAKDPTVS

[18] = cells; type: functional, cell-based
[19] = cells; type: functional, cell-based; remark: listed apart in the source
[20] = reduction of Shn3 3'UTR-driven luciferase in osteoblasts – cell-based, Clone20 osteoblasts, firefly luciferase, cherry-picked, dose response (AID 624132); type: functional;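 further: firefly luciferase luminescence from reporter carrying the Shn3 3'UTR in osteoblasts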
[21] = loss of viability in HepG2 cells – cell-based, CellTiter-Glo, cherry-picked, cytotoxicity control for Shn3 inhibitor project, dose response (AID 624134); type: functional
[22] = non-specific 3'UTR reporter inhibition in Clone20-Shn3RL – cell-based, Renilla luciferase, cherry-picked, counter-screen for Shn3 inhibitor project, dose response (AID 624133); type: functional
[23] = THP-1 cell cytotoxicity, dose response, cytotoxicity control for non-replicating M. tuberculosis project (AID 489025); type: functional
[24] = molecular target: Heat shock protein HSP 90-alpha (Homo sapiens, UniProt P07900); type: functional, organism-based
[25] = molecular target: Glucose-6-phosphate 1-dehydrogenase (Homo sapiens, UniProt P11413); assay: inhibition of Homo sapiens G6PD, dose series – biochemical, fluorescence, selectivity assay for P. falciparum G6PD inhibitor project, dose response (AID 504792); type: functional
Sequence of Glucose-6-phosphate 1-dehydrogenase (P11413 whole entry): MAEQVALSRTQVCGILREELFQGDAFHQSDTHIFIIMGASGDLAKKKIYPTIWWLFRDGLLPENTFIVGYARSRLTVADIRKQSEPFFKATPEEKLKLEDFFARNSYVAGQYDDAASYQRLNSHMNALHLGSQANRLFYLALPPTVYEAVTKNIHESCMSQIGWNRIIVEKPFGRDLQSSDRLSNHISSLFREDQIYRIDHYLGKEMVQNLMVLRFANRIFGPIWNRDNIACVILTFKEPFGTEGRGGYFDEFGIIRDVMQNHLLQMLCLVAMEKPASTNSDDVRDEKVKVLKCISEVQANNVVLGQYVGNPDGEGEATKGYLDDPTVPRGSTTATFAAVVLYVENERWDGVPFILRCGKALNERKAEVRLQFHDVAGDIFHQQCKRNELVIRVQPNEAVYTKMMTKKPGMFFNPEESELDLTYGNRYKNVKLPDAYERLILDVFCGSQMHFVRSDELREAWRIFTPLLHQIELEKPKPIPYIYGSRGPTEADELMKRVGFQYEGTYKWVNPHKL

[26] = molecular target: T4, Hexokinase (Trypanosoma brucei, UniProt Q38C41); assay: Confirmation assay for inhibitors of Trypanosoma brucei hexokinase 1-Analogue-first series. [Related pubchem assays (depositor defined):AID1430, AID1632, AID2516, AID2560, AID2579, AID2600, AID449725, AID492951]; type: functional
T4 sequence (Q38C41 whole entry): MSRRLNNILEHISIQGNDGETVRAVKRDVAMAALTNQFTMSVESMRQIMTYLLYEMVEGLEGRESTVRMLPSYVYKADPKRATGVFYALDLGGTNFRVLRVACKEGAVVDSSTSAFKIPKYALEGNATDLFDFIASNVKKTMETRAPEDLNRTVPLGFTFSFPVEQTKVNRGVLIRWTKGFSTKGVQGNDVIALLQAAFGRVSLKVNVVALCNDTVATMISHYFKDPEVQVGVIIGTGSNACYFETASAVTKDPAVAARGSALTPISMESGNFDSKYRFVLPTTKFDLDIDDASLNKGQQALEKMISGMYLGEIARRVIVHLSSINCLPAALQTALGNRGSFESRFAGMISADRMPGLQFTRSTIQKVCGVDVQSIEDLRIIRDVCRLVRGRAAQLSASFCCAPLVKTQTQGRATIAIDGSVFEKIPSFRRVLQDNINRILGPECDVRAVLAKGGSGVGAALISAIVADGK

[27] = molecular target: Eukaryotic translation initiation factor 4E (Mus musculus, UniProt P63073); assay: blockers of eIF4G binding by eIF4E – biochemical, TR-FRET, dose response (AID 855); type: functional;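 further: potency for disrupting eIF4E binding to eIF4GI seen as loss of FRET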
Sequence of Eukaryotic translation initiation factor 4E (P63073 whole entry): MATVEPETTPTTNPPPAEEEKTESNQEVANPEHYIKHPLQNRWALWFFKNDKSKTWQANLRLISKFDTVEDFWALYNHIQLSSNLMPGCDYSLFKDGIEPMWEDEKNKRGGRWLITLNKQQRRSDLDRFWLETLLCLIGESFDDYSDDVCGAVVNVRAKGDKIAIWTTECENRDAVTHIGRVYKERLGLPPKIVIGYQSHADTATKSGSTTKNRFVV

COc1ccc(C(=O)/C=C/c2cc(OC)c(O)c(OC)c2)c(F)c1
CC50 [1]: 14.3 µM (active) | CC50 [2]: 25.7 µM (active) | AC50 [3]: 7.21 µM (active) | IC50 [4]: > 25 µM (active) | CC50 [5]: 18.7 µM (active)

CCCCc1c(O)nc(SCC(=O)c2ccccc2)nc1O
IC50 [6]: > 66 µM (inactive) | IC50 [7]: > 66 µM (inactive) | AC50 [8]: 30.3 µM (active)

CCCN(CC(=O)Nc1ccccc1C)C(=O)CCl
EC50 [9]: 4 µM (active) | EC50 [10]: 14.9 µM (inconclusive) | EC50 [11]: > 150 µM (inconclusive) | EC50 [12]: 8.23 µM (active) | AC50 [13]: 4.04 µM (active) | CC50 [5]: 9.42 µM (active)

Cc1cccc(NC(=O)[C@H](Cc2c[nH]c3ccccc23)NC(=O)[C@@H]2Cc3ccccc3CN2)c1
EC50 [9]: 28.3 µM (active) | EC50 [10]: 26.9 µM (active) | EC50 [11]: > 150 µM (not active) | EC50 [12]: 71.3 µM (active) | IC50 [4]: 4.39 µM (active) | CC50 [5]: 19.4 µM (active)

O=C(NNC(=S)NC(=O)c1sc2ccccc2c1Cl)c1ccc(Cl)cc1
IC50 [4]: 10 µM (active) | CC50 [5]: > 25 µM (active)

CN(C)S(=O)(=O)c1ccc(C(=O)/C=C/c2cccnc2)cc1
EC50 [9]: 10.4 µM (active) | CC50 [14]: 17.5 µM (active) | EC50 [10]: > 150 µM (not active) | EC50 [11]: > 150 µM (inconclusive) | EC50 [12]: 10.4 µM (active)

COc1ccc(-n2nc3c(N4CCC(C(=O)N5CCC(C)CC5)CC4)nnc(C)c3c2C)cc1
EC50 [15]: > 160 µM (inactive) | EC50 [16]: > 38 µM (not active) | EC50 [17]: > 260 µM (inactive)

CCCn1c(SCC(=O)Nc2ccccc2CC)nnc1C(C)C
EC50 [18]: > 350 µM (not active) | EC50 [19]: > 350 µM (not active)

CC(C)Cn1c2c(c(O)c(C(=O)Nc3ccc(F)cc3)c1=O)CCCC2
CC50 [14]: > 40 µM (active)

Nc1nc(CN2CCN(c3ccccn3)CC2)nc(Nc2ccc(F)cc2)n1
EC50 [15]: > 150 µM (inconclusive) | EC50 [16]: > 38 µM (not active)

COCc1cc(C)n(CC(=O)NC(C)c2ccccc2)c(=O)c1C#N (stereo not drawn)
AC50 [8]: 27.1 µM (active)

CCc1sc2nc(SCC(=O)Nc3cc(C)on3)n(-c3cccc(OC)c3)c(=O)c2c1C
CC50 [14]: 36.3 µM (active)

CCOC(=O)c1c(-c2ccccc2)oc2cc(CN(C)C)c(O)c(CN(C)C)c12
EC50 [18]: 28 µM (active) | EC50 [19]: > 350 µM (not active) | AC50 [20]: 7.81 µM (active) | AC50 [21]: 21.2 µM (active) | AC50 [22]: 5.5 µM (active)

O=C(NCc1cccc(Cl)c1)c1cnn2c1NC(c1ccco1)CC2C(F)(F)F (stereo not drawn)
AC50 [8]: 24.2 µM (active)

Cc1cccc(CCNC(=O)Cn2ncc3c4cc(C)ccc4nc-3c2O)c1
EC50 [18]: > 350 µM (not active) | EC50 [19]: > 350 µM (not active)

Cc1cccc(NCc2ccc([N+](=O)[O-])s2)c1
CC50 [23]: > 40 µM (active)

CCC1Oc2nc(SC)nnc2-c2ccccc2N1C(=O)c1ccccc1 (stereo not drawn)
AC50 [8]: 24.1 µM (active)

O=C(/C=C/c1ccccn1)c1cc(Br)ccc1O
CC50 [14]: > 40 µM (active) | AC50 [24]: 2.03 µM (active)

N#CC(C#N)=C1C=CC=CN1/C(=C\c1ccccc1Cl)C(=O)c1ccccc1
IC50 [25]: > 80 µM (inactive) | IC50 [4]: > 25 µM (active) | CC50 [5]: 24.5 µM (active)

CC1(c2ccc(C(=O)Nc3cc(Cl)ccc3C(=O)O)cc2)CC1
IC50 [26]: 8 µM (active) and 4.24 µM (active)

CN(C)c1cccc(NC(=O)Cn2sc3ccccc3c2=O)c1
IC50 [26]: 8.21 µM (active)

O=c1c2ccccc2[s+]([O-])n1-c1ccc(Cl)cc1 (stereo not drawn)
IC50 [26]: > 25 µM (inactive)

COc1ccccc1NC(=O)Cn1sc2ccccc2c1=O
IC50 [26]: 6.28 µM (active)

COC(CN(C)C(=O)C1CCCN(S(=O)(=O)c2ccc3c(c2)oc(=O)n3C)C1)OC (stereo not drawn)
AC50 [8]: 27.3 µM (active)

O=C(N/N=C/c1ccc2c(c1)OCO2)c1sc2cc(Cl)ccc2c1Cl
CC50 [14]: > 40 µM (active) | IC50 [27]: > 64 µM (inactive)

COc1cc(/C=N/NC(=O)c2cc(-c3cccc(OC(C)C)c3)nc3ccccc23)ccc1O
CC50 [1]: 15.5 µM (active) | IC50 [4]: > 25 µM (active) | CC50 [5]: > 25 µM (active)

O=c1c(/N=N/c2ccc(O)cc2)c(-c2ccccc2)[nH]n1-c1ccc([N+](=O)[O-])cc1
CC50 [14]: 17.7 µM (active)
